Where two headings read alike, the source gives them in different places.
How the values were obtained:
[1] = Safety exploration in MIA PaCa-2 xenograft model; format: in vivo; conditions: MIA PaCa-2 xenograft mice, 400 mg/kg, po, QD, 22 days
Procedure: 7. Safety Exploration in MIA PaCa-2 xenograft Model
. Mice were monitored daily and caliper measurements began when tumors became visible. Tumor volume was calculated by measuring two perpendicular diameters using the following formula: (L*W^2)/2 in which L and W refer to the length and width tumor diameter, respectively. After mice were grouped to study the efficacy, the remaining mice (n=6) were used to explore the safety. The mice were treated with 400 mg/kg compound 1-2 (po, QD) for 22 days, and mice body weight was measured twice a week during treatment. […]

[2] = tested on: NCI-H1373 cells; assay: Efficacy in NCI-H1373 xenograft model; format: in vivo, BALB/c nude mice
Procedure: 6. The Efficacy in NCI-H1373 Xenograft Model
NCI-H1373 cells (5.0E+06 cells) were injected subcutaneously into the right flank of female BALB/c nude mice (6-8 weeks) in a mixture with PBS and Matrigel (Corning) (PBS/Matrigel=1:1 (v/v)). Mice were monitored daily and caliper measurements began when tumors became visible. Tumor volume was calculated by measuring two perpendicular diameters using the formula: (L*W^2)/2 in which L and W refer to the length and width tumor diameter, respectively. When the average tumor volume reached 150-200 mm^3, mice were grouped randomly (n=6/group) and treated with compounds. Tumor volume and mice weight was measured twice a week during treatment (˜ 3 weeks). […] The results are in the following Table 13 and FIG. 8: […]

[3] = Cynomolgus monkey pharmacokinetic study; format: in vivo; conditions: for CL / VSS / AUC0-24 h / Cmax / Oral BA (F %): Cynomolgus monkey; for CL / VSS: 1 mg/kg, iv; for AUC0-24 h / Cmax / Oral BA (F %): 3 mg/kg, po
Procedure: 5. Cynomolgus Monkey Pharmacokinetic Study
The purpose of this study was to evaluate the pharmacokinetic properties of compounds in Cynomolgus monkey following single dose administration. The day before administration, monkeys were fasted overnight and free access to water. Four monkeys are needed for each compound and the four monkeys were divided into two groups (one male(♂) and one female (♀) in each group), group A and group B. Monkeys in group A were treated with a single 1 mg/kg dose of compound (iv). Monkeys in group B were treated with a single 3 mg/kg dose of compound (po). For monkeys in group A, blood samples were collected at pre-dose, and at the time point of 0.083, 0.25, 0.5, 1, 2, 4, 6, 8 and 24 h. For monkeys in group B, blood samples were collected at pre-dose, and at the time point of 0.25, 0.5, 1, 2, 4, 6, 8 and 24 h post-dose. Blood samples were placed on ice until centrifugation to obtain plasma samples. The plasma samples were stored at −80° C. until analysis. The concentration of compound in plasma samples were determined using a LC-MS/MS method.

[4] = tested on: NCI-H358 cells expressing KRAS G12C; assay: Phospho-ERK1/2(THR202/TYR204) HTRF assay; format: cell-based; conditions: 2 hours incubation, read-out: p-ERK IC50
Procedure: NCI-H358 cells expressing KRAS G12C were cultured in RPMI 1640 medium (Gibco) containing 10% fetal bovine serum (Gibco). The NCI-H358 cells in culture medium were seeded in 96-well plates at a concentration of 40,000 cells/well and then put in a 37° C./5% CO2 cell incubator to incubate overnight. The next day, culture medium was removed and the compound diluted in assay medium (RPMI 1640, 0.1% FBS) was added in each well. After 2 hours incubation in a 37° C./5% CO2 cell incubator, the assay medium in 96-well plates was removed, then 50 μL of 1× blocking reagent-supplemented lysis buffer (Cisbio) was added and the plates were incubated at 25° C. for 45 min with shaking. 10 μL of cell lysates from the 96-well plates were transferred to a 384-well plate (Greiner) containing 2.5 μL/well HTRF® pre-mixed antibodies (Cisbio 64AERPEH). Incubate 4 hours at 25° C. and then read HTRF signals on Tecan Spark multimode microplate reader. The data were analyzed using a 4-parameter logistic model to calculate IC50 values.

[5] = Dog pharmacokinetic study; format: in vivo, beagle dog; conditions: for CL / VSS / AUC0-24 h / Cmax / Oral BA (F %) / clearance / Vd / AUC(0-t) / bioavailability: beagle dog; for CL / VSS / clearance / Vd: 1 mg/kg, iv; for AUC0-24 h / Cmax / Oral BA (F %) / AUC(0-t) / bioavailability: 10 mg/kg, po; for Vd: read-out: VSS; for AUC(0-t): read-out: AUC0-24 h; for bioavailability: read-out: Oral BA (F %)
Procedure: 4. Dog Pharmacokinetic Study
The purpose of this study was to evaluate the pharmacokinetic properties of compounds in beagle dog following single dose administration. The day before administration, dogs were fasted overnight and free access to water. Four beagle dogs were needed for each compound and the four dogs were divided into two groups (one male (♂) and one female (♀) in each group). Dogs in group A were treated with a single 1 mg/kg dose of compound (iv). Dogs in group B were treated with a single 10 mg/kg dose of compound (po). For dogs in group A, blood samples were collected at pre-dose, and at the time point of 0.083, 0.25, 0.5, 1, 2, 4, 6, 8 and 24 h. For dogs in group B, blood samples were collected at pre-dose, and at the time point of 0.25, 0.5, 1, 2, 4, 6, 8 and 24 h post-dose. Blood samples were placed on ice until centrifugation to obtain plasma samples. The plasma samples were stored at −80° C. until analysis. The concentration of compound in plasma samples were determined using a LC-MS/MS method.

[6] = Mouse pharmacokinetic study; format: in vivo, Balb/c mouse; conditions: plasma, Balb/c mouse (female); for clearance / Vd: 3 mg/kg, iv; for Vd: read-out: Vss; for Cmax / AUC(0-t) / bioavailability: 10 mg/kg, po; for AUC(0-t): read-out: AUC0-24 h; for bioavailability: read-out: Oral BA (F %)
Procedure: 3. Mouse Pharmacokinetic Study
The purpose of this study was to evaluate the pharmacokinetic properties of compounds in Balb/c mouse (♀) following single dose administration. The day before administration, mice were fasted overnight and free access to water. Six mice were needed for each compound and the six mice were divided into two groups (n=3/group), group A and group B. Mice in group A were treated with a single 3 mg/kg dose of compound (iv). Mice in group B were treated with a single 10 mg/kg dose of compound (po). For each mouse in group A, blood samples were collected at pre-dose, and at the time point of 0.083, 0.25, 0.5, 1, 2, 4, 6, 8 and 24 h post-dose. For each mouse in group B, blood samples were collected at pre-dose, and at the time point of 0.25, 0.5, 1, 2, 3, 4, 6, 8 and 24 h post-dose. Blood samples were placed on ice until centrifugation to obtain plasma samples. The plasma samples were stored at −80° C. until analysis. The concentration of compound in plasma samples were determined using a LC-MS/MS method.

[7] = tested on: HIS-KRAS (G12C); format: biochemical; conditions: GDP-loaded HIS-KRAS (G12C), 1 hour pre-incubation with compound, TR-FRET; read-out: SOS1 catalyzed nucleotide exchange IC50

## C=CC(=O)N1CCN(c2c(C#N)c(=O)n(-c3c(C)ccnc3C(C)C)c3nc(-c4c(N)c(F)c(F)c(F)c4F)c(Cl)cc23)CC1 (atropisomer, axis not shown; (M)) [Compound 1-2, (M)-4-(4-acryloylpiperazin-1-yl)-7-(2-amino-3,4,5,6-tetrafluorophenyl)-6-chloro-1-(2-isopropyl-4-methylpyridin-3-yl)-2-oxo-1,2-dihydro-1,8-naphthyridine-3-carbonitrile]
[1]
  Safety (mice body weight, FIG. 9): good safety
[2]; 10 mg/kg, QD, Day 21
  TGI %: 103%
[2]; 10 mg/kg, QD, start volume 193 mm^3
  Tumor volume at the end (Day 21): 144 mm^3
[2]; Table 13 and FIG. 8
  Efficacy in vivo (in words): excellent efficacy in vivo
[3]; female
  CL: 7.19 mL/min/kg
  VSS: 0.86 L/kg
  AUC0-24 h: 6854 ng·h/mL
  Cmax: 2680 ng/mL
  Oral BA (F %): 98.9%
[3]; male
  CL: 5.25 mL/min/kg
  VSS: 0.61 L/kg
  AUC0-24 h: 7938 ng·h/mL
  Cmax: 2030 ng/mL
  Oral BA (F %): 83.5%
[3]; monkey model
  Pharmacokinetic properties (in words): excellent pharmacokinetic properties
[4]
  IC50: 10.2 nM
[5]; beagle dog model, compared with Amgen 6 and 6.3
  Pharmacokinetic properties (in words): excellent pharmacokinetic properties
[5]; female
  CL: 18.1 mL/min/kg
  VSS: 1.1 L/kg
  AUC0-24 h: 5953 ng·h/mL
  Cmax: 2980 ng/mL
  Oral BA (F %): 65.1%
[5]; male
  CL: 15.9 mL/min/kg
  VSS: 0.9 L/kg
  AUC0-24 h: 6724 ng·h/mL
  Cmax: 3420 ng/mL
  Oral BA (F %): 64.3%

## C=CC(=O)N1CCN(c2c(C#N)c(=O)n(-c3c(C)ccnc3C(C)C)c3nc(-c4ccccc4F)c(Cl)cc23)CC1 [Amgen 6, 4-(4-acryloylpiperazin-1-yl)-6-chloro-7-(2-fluorophenyl)-1-(2-isopropyl-4-methylpyridin-3-yl)-2-oxo-1,2-dihydro-1,8-naphthyridine-3-carbonitrile]
[4]; Homo sapiens
  IC50: 29.9 nM
[6]
  clearance: 72 mL/min/kg
  Vd: 2.6 L/kg
  Cmax: 901 ng/mL
  AUC(0-t): 1030 ng·h/mL
  bioavailability: 44%
[5]; plasma, female
  clearance: 15.5 mL/min/kg
  Vd: 0.543 L/kg
  AUC(0-t): 1330 ng·h/mL
  bioavailability: 12.4%
[5]; plasma, female, read-out: Cmax
  Cmax: 2580 ng/mL
[5]; plasma, male
  clearance: 11.8 mL/min/kg
  Vd: 0.412 L/kg
  AUC(0-t): 2940 ng·h/mL
  bioavailability: 20.9%
[5]; plasma, male, read-out: Cmax
  Cmax: 3690 ng/mL

## C=CC(=O)N1CCN(c2c(C#N)c(=O)n(-c3c(C(C)C)ncnc3C(C)C)c3nc(-c4c(N)cccc4F)c(Cl)cc23)CC1 [Amgen 6.3, 4-(4-acryloylpiperazin-1-yl)-7-(2-amino-6-fluorophenyl)-6-chloro-1-(4,6-diisopropylpyrimidin-5-yl)-2-oxo-1,2-dihydro-1,8-naphthyridine-3-carbonitrile]
[4]; Homo sapiens
  IC50: 20.1 nM
[7]
  IC50: 2.77 nM
[6]
  clearance: 32 mL/min/kg
  Vd: 1.4 L/kg
  Cmax: 1590 ng/mL
  AUC(0-t): 1660 ng·h/mL
  bioavailability: 32%
[5]; plasma, female
  clearance: 329 mL/min/kg
  Vd: 3.1 L/kg
[5]; plasma, male
  clearance: 239 mL/min/kg
  Vd: 2.3 L/kg
  AUC(0-t): 5.1 ng·h/mL
  bioavailability: 0.7%
[5]; plasma, male, read-out: Cmax
  Cmax: 8 ng/mL
